Results on 3 molecules are retold here after patent US6448032B1, “Human melanocyte stimulating hormone receptor polypeptide and DNA” (priority 1992, dated 2002).

What is called Ki is the dissociation constant of the complex between target and ligand, obtained from inhibition or displacement.

The target in one experiment is T1, MC-2 receptor (Homo sapiens, UniProt P33032).
T1 construct: expressed in transfected cells; host or cells: COS-7 cells, transient, plasmid pE-MC-2 (pRC/CMV)
As to the kind of experiment: Inhibition of 125I-NDP-MSH binding to COS-7 cells transfected with pE-MC-2. The settings on record: pE-MC-2 transfected COS-7 cells. The procedure: Eighty percent confluent cultures were transfected with 1 μg of pE-MC-2 plasmid DNA and 40 μg lipofectin (BRL, 8400 Helgerman Court, Gaithersburg, Md. 20877, USA) in serum free medium. Five hours after transfection, serum containing medium was replaced, and cells were cultivated for 20 hours. Cells were then scraped off, centrifuged, resuspended in serum containing medium, plated on 48 well plates, and allowed to grow for 24 hours. […] Radioactivity was counted and data analyzed by iterative, non-linear curve fitting programme suitable for radioligand binding analysis (see FIG. 9).

Experiment [1] deals with T2, MSH receptor (Homo sapiens, UniProt Q01726).
T2 construct: This polypeptide constitutes the entire polypeptide of an MSH receptor; expressed in transfected cells; host or cells: COS-7 cells, transient, plasmid pE-11D (pcDNAI)
T2 sequence (Q01726 whole entry): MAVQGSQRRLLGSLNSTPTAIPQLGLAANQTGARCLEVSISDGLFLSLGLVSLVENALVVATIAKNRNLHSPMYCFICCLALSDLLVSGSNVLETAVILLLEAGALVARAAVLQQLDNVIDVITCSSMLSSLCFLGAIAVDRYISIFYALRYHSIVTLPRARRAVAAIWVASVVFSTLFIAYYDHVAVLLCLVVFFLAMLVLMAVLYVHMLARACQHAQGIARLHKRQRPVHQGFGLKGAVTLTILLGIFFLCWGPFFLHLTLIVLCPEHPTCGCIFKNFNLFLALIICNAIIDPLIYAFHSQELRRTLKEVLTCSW
As to the kind of experiment: Inhibition of 125I-NDP-MSH binding to COS-7 cells transfected with MSH receptor cDNA (pE-11D). The settings on record: pE-11D transfected COS-7 cells. The method, then: Eighty percent confluent cultures were transfected with 1 μg of pE-11D plasmid DNA and 40 μg lipofectin (BRL, 8400 Helgerman Court, Gaithersburg, Md. 20877, USA) in serum free medium. Five hours after transfection, serum containing medium was replaced, and cells were cultivated for 20 hours. Cells were then scraped off, centrifuged, resuspended in serum containing medium, plated on 48 well plates, and allowed to grow for 24 hours. […] Radioactivity was counted and data analyzed by iterative, non-linear curve fitting programme suitable for radioligand binding analysis (see FIG. 6).

Experiment [2] concerns the target T2, MSH receptor. Briefly: Inhibition of 125I-NDP-MSH binding to stable COS-7 cell line harbouring pRC/CMV-11D. Conditions: NDP-MSH radioligand competition. The procedure:
COS-7 cells (available from ATCC) were grown in Dulbecco's modified Eagle medium with 8% fetal calf serum and non-essential amino acids (Gibco/BRL, 8400 Helgerman Court, Gaithersburg, Md. 20877, USA) in serum free medium, five hours after transfection, serum containing medium was replaced, and cells were cultivated for 48 hours. At this time selection for the calls stably harbouring the pRC/CMV-11D plasmid was begun by growing the cells in neomycin (0.5 mg/ml) containing medium (selection medium). Selection procedure was continued for two weeks, replacing the selection medium every 4th day. surviving cells were collected and maintained in the selection medium. These cells constitute the stable cell line.
To investigate the binding properties cells were scraped off from the culture flask, centrifuged, resuspended in selection medium, plated on 48 well, and allowed to grow for 24 hours. […] Radioactivity was counted and data analyzed by an iterative, non-linear curve fitting programme suitable for radioligand binding analysis. […]
For orientation: Loss of bound radioactivity is the signal in a displacement assay; it reports binding, not function.

Where [3] appears, read: 37° C., 2 hours, Ki from IC-50 by Cheng and Prusoff equation, read-out: Ki for inhibiting 125I-NDP-MSH binding.

No end group written: not given here.

T1 sequence (P33032 whole entry): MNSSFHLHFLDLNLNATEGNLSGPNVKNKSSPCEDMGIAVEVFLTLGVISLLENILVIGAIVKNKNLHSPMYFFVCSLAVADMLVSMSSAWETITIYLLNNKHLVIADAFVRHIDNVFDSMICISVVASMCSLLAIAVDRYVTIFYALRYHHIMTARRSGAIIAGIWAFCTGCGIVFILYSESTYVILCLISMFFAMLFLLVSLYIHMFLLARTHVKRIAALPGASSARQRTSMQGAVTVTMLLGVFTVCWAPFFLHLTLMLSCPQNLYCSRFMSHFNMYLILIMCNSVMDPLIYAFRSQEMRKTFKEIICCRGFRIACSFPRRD

In the case of “SYSMEHFRWGKPVGKKRRPVKVYPNGAEDESAEAFPLEF [ACTH (1-39)]”, the Ki at MC-2 receptor (setting [3]) was determined as 0.929 ± 0.389 µM; at MSH receptor [1] (setting [3]), 0.00017 ± 3.7e-05 µM.
For `CSCC[C@H](N)C(=O)N[C@@H](CCC(=O)O)C(=O)N[C@@H](Cc1c[nH]cn1)C(=O)N[C@@H](Cc1ccccc1)C(=O)N[C@@H](CCCNC(=N)N)C(=O)N[C@@H](Cc1c[nH]c2ccccc12)C(=O)NCC(=O)O` [ACTH (4-10)], at MSH receptor [2], the “binding affinity for the expressed MSH receptor” value is reported as “very low binding affinity”.
As for “β-endorphin: non-melanotropic POMC peptide”, the “affinity for the expressed MC-2 receptor” value with MC-2 receptor (125I-NDP-MSH competition) was “no affinity”. The “affinity for the expressed MSH receptor” value in the experiment with MSH receptor [1] (125I-NDP-MSH competition) is reported as “no affinity”. Also, the “binding affinity for the expressed MSH receptor” value in the experiment with MSH receptor [2] is “no affinity”.
